From US10975081B2, “Substituted fused pyrazole compounds and their use as LRRK2 inhibitors” (GlaxoSmithKline Intellectual Property Development Limited, priority 2015, dated 2021)
Structures can show the parent of a compound that is named as a salt.

Columns and labels:
[1] = molecular target: Truncated G2019 human LRRK2 (1326-2527) (Homo sapiens (Human), UniProt Q5S007); assay: Truncated G2019 human LRRK2 (1326-2527) inhibition mass spectrometry assay; format: biochemical; details: 6HIS-Tev-LRRK2 (1326-2527), 25 uM LRRKtide, 20 uM ATP; for IC50: read-out: Truncated G2019 human LRRK2 inhibition mass spectrometry assay (pIC50) (converted)
Truncated G2019 human LRRK2 (1326-2527), sequence (Q5S007 1326-2527): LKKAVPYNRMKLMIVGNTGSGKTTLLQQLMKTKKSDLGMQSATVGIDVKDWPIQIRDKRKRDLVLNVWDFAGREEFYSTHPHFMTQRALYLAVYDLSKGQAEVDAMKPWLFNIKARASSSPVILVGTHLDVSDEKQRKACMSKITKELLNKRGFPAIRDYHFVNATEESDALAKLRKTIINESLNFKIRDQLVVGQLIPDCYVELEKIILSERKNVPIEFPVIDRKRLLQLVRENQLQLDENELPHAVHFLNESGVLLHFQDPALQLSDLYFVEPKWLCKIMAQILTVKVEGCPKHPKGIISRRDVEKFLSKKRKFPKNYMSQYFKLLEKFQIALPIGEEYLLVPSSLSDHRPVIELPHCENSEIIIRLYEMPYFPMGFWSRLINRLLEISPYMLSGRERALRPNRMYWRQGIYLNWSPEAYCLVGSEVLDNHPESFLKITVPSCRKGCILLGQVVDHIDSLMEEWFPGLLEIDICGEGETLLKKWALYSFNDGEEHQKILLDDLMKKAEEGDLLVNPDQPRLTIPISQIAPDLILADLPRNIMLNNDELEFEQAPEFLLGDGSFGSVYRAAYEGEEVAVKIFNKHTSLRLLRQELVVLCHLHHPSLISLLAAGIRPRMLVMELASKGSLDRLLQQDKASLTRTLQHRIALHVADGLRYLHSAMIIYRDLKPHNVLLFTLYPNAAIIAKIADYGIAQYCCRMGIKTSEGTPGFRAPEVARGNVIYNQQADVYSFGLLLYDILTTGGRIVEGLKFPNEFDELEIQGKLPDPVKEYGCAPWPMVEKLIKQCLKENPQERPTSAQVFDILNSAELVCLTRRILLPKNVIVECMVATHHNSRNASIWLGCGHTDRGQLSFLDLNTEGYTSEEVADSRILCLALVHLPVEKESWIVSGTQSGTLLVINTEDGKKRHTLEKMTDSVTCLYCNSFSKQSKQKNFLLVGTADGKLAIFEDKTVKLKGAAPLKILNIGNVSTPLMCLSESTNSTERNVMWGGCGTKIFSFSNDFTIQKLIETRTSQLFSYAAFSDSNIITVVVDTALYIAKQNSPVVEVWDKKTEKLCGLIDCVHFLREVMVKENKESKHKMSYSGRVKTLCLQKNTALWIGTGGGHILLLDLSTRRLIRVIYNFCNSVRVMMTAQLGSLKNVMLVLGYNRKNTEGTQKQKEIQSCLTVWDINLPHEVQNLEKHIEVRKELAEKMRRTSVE
Text: 1) Truncated G2019 Human LRRK2 (1326-2527) Inhibition Mass Spectrometry Assay
A LRRK2 cDNA encoding residues 1326-2527 was received from Dundee University (described in M. Jaleel et al., 2007, Biochem J, 405: 407-417). This gene fragment was subcloned into pFB-HTb (Invitrogen) using BamHI and NotI restriction sites. The LRRK2 plasmid was recombined into the baculovirus genome according to the BAC-to-BAC protocol described by Invitrogen. Transfection into Spodoptera frugiperda (Sf9) insect cells was performed using Cellfectin (Invitrogen), according to the manufacturer's protocol to generate P1 and P2 baculovirus stocks.
Sf9 cells were grown in HyClone SFX (Thermo Scientific) growth media at 27° C., 80 rpm in shake flask until of a sufficient volume to inoculate a bioreactor. The cells were grown in a 20 litre working volume Wave bioreactor (GE Healthcare) at 27° C., 50% dissolved oxygen and an agitation rate 22 rocks per minute, 10 degree rock angle, 200 ml/min air with a cell concentration of approximately 6xe6 cells/ml. The cells were infected with P2 Baculovirus at a multiplicity of infection (MOI) of 3. The cultivation was continued for a 48 hour expression phase. The infected cells were removed from the growth media by centrifugation at 2500 g using a Sorvall RC 3C Plus centrifuge at 2500 g for 20 minutes. The cell pellet was immediately frozen and subsequently supplied for purification.
A 260 g pellet was allowed to thaw in a water bath at 27° C. with 800 ml lysis buffer/buffer A (50 mm Tris-HCl pH 8.5, 300 mM NaCl, 1 mm DTT, 10% glycerol, 1 ml/L Calbiochem complete protease inhibitor cocktail and benzonase (50 ul/800 ml)) before being dounce homogenised on ice using 20 strokes per 100 ml. The suspension was packed in ice and sonicated at 50% amplitude for 3 min 10 sec on/off using a ¾″ probe. The suspension was then centrifuged at 100,000 g for 90 min, at 4° C.
The lysate (700 ml) was decanted from the insoluble pellet and contacted for 3h at 4° C. with 10 ml His bind Ni NTA resin by end over end mixing. The resin was recovered by centrifugation, 3000 g, 5 min at 4° C., and packed in an XK16 column. The column was then washed with 10 column volumes buffer A, 10 column volumes buffer B (buffer A+1M NaCl) and 10 column volumes buffer C (buffer A+20 mM imidazole). The column was then eluted with 15 column volumes buffer D (buffer A+300 mM imidazole) collecting 2 ml fractions. All washes and elution were conducted at 4 ml/min.
Fractions identified by SDS-PAGE as containing protein of interest were pooled and loaded directly onto a 320 ml SEC Superdex 200 pg column that was pre-equilibrated with buffer E (50 mM Tris-HCl pH 8.5, 300 mM NaCl, 10% glycerol, 1 mM DTT). The column was loaded and eluted with 1.2 column volumes buffer E at 2 ml/min collecting 2 ml fractions. Fractions identified by SDS-PAGE as containing protein of interest were tested for activity.
Production of LRRKtide for LRRK2 Inhibition Mass Spectrometry Assay
The ‘LRRKtide’ peptide (SEQ ID NO. 10) was synthesized as follows. The protected peptide was assembled on a solid-phase synthesiser using preloaded Wang resin and utilising standard Fmoc synthesis protocols. The crude peptide was obtained after cleavage from the resin with a mixture of trifluoroacetic acid (TFA), triisopropylsilane and water (95:2.5:2.5) for 3 hours at room temperature and was then purified using a C18 reverse-phase column utilising a 0.1% TFA-buffered water/acetonitrile gradient. The resulting fractions were analysed and fractions which were >95% pure by analytical HPLC and giving the correct molecular weight (mw) (by MALDiTOF mass spectroscopy) were pooled and freeze dried. The final material was analysed by HPLC and MALDiTOF mass spectroscopy.
Truncated G2019 Human LRRK2 (1326-2527) Inhibition Mass Spectrometry Assay […]

[2] = molecular target: LRRK2 Ser935 phosphorylation in SH-SY5Y cells over-expressing recombinant full length LRRK2 (Homo sapiens (Human), UniProt Q5S007); assay: Recombinant cellular LRRK2 AlphaScreen assay; format: cell-based; details: 60 minutes, read-out: Recombinant cellular LRRK2 alphaScreen assay (pIC50) (converted)
LRRK2 Ser935 phosphorylation in SH-SY5Y cells over-expressing recombinant full length LRRK2, sequence (Q5S007 whole entry): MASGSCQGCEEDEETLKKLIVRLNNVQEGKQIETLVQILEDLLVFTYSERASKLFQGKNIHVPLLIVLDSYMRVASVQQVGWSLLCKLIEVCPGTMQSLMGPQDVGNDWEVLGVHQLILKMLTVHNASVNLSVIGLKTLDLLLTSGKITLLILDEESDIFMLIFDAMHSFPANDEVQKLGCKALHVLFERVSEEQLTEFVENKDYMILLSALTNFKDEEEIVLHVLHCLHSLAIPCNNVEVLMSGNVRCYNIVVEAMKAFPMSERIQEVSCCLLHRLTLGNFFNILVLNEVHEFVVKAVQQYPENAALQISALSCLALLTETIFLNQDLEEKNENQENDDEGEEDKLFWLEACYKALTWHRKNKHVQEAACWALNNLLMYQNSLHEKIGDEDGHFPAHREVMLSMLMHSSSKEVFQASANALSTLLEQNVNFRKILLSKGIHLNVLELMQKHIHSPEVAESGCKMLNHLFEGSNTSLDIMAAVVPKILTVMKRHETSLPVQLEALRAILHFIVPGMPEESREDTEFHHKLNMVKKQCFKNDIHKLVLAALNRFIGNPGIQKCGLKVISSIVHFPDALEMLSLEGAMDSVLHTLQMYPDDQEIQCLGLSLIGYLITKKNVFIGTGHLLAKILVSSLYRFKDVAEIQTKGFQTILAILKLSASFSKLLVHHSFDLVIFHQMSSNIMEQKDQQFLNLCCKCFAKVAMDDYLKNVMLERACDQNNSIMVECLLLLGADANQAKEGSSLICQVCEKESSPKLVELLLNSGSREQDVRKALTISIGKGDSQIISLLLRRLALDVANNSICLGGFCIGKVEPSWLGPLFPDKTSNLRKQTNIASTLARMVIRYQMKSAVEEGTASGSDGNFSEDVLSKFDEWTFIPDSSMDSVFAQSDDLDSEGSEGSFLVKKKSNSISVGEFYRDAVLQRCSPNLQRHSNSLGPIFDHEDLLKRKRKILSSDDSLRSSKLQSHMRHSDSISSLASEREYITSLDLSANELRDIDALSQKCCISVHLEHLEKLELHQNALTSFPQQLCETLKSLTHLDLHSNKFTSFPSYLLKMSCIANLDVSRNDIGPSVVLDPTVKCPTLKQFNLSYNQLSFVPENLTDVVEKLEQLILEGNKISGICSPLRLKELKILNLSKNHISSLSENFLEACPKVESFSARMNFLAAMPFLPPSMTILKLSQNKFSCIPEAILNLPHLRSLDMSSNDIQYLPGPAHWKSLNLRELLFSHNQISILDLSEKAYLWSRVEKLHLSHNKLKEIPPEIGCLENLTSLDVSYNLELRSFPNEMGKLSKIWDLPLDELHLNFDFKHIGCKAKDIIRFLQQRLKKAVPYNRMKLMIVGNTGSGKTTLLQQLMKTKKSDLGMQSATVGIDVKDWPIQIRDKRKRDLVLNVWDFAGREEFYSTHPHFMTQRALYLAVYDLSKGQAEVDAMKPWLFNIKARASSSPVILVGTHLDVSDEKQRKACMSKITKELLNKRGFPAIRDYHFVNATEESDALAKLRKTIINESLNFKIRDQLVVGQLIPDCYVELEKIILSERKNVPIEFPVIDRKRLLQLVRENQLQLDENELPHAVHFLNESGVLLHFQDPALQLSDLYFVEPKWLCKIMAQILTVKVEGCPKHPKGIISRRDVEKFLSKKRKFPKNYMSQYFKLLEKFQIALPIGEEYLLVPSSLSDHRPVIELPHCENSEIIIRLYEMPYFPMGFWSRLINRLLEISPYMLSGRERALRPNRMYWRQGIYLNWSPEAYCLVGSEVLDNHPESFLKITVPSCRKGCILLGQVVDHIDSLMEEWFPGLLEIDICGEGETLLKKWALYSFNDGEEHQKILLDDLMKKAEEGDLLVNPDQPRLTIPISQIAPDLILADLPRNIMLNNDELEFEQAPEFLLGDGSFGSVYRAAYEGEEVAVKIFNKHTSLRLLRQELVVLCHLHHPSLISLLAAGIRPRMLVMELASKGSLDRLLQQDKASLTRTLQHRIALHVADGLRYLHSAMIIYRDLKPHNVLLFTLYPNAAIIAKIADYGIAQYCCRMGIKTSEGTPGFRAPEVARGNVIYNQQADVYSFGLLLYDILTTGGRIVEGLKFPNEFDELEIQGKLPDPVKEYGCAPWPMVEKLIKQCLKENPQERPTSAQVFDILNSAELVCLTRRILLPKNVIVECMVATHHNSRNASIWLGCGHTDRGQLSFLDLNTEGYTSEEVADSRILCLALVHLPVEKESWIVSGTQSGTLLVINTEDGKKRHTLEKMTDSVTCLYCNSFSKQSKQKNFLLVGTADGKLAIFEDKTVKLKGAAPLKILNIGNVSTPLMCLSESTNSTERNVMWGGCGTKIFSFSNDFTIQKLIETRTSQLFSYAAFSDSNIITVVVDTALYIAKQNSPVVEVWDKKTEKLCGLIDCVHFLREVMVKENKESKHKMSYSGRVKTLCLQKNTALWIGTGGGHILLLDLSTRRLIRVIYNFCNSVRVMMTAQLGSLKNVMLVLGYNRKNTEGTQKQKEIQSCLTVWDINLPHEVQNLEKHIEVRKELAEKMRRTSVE
Text: To determine the activity of compounds against LRRK2 kinase activity in cells, the observed LRRK2 kinase-dependent modulation of LRRK2 Ser 935 phosphorylation (Dzamko et al., 2010, Biochem. J. 430: 405-413) was utilized to develop a quantitative 384 well plate-based immunoassay of LRRK2 Ser935 phosphorylation in the human neuroblastoma cell line SH-SY5Y, engineered to over-express recombinant full length LRRK2 protein.
A BacMam virus expressing full length recombinant LRRK2 was purchased from Invitrogen and amplified by inoculation of SF-9 cells at MOI 0.3 for 4-5 days in Sf-900 III SFM medium supplemented with 3% fetal bovine serum. Infected cell cultures were then centrifuged at 2000 g for 20 minutes, viral supernatant titer determined by anti-gp64 plaque assay and stored at 4° C.
Affinity-purified anti-phospho LRRK2 Ser935 sheep polyclonal antibody (Dzamko et al., 2010, Biochem. J. 430: 405-413) was biotinylated by standard methods (PerkinElmer). Anti-LRRK2 rabbit polyclonal antibody was purchased from Novus Biologicals. AlphaScreen Protein A IgG Kit (including acceptor and donor beads) was purchased from Perkin Elmer.
SH-SY5Y cells were grown in DMEM/F12 medium with 10% dialysed fetal bovine serum and harvested by treatment with 0.5% trypsin-EDTA for 5 minutes at 37° C. followed by centrifugation at 1000 rpm for 4 minutes. The cell pellet was resuspended in Opti-MEM reduced serum media (Invitrogen) at 200,000 cells/ml and mixed with the BacMam LRRK2 virus at M01=50. 50 μl cell solutions were then dispensed to each well of a 384-well plate and incubated at 37° C., 5% CO2 for 24 hours.
Serial dilutions of test compounds were prepared in Opti-MEM reduced serum media (Invitrogen) and 5.6 ul transferred from compound plate to cell assay plate to achieve a top final assay concentration of 10 uM. DMSO was used in certain wells as controls. Cells were incubated at 37° C., 5% CO2 for 60 minutes. The medium was then removed and cells lysed by addition of 20 ul cell lysis buffer (Cell Signaling Technology) and incubation at 4° C. for 20 minutes. 10 ul of antibody/acceptor bead mix [( 1/1000 biotinylated-pS935 LRRK2 antibody, 1/1000 total-LRRK2 antibody, 1/100 Acceptor beads in AlphaScreen detection buffer (25 mM Hepes (pH 7.4), 0.5% Triton X-100, 1 mg/ml Dextran 500 and 0.1% BSA)] was then added to each well and plates incubated for 2 hours at ambient temperature in the dark. 10 μl of donor beads solution (1/33.3 donor beads in AlphaScreen detection buffer) was then added to each well. Following incubation for a further 2 hours at ambient temperature in the dark, plates were read on an EnVision™ plate reader at emission 520-620 nm with excitation 680 nm. Dose response curve data was based on sigmoidal dose-response model.

Compound	IC50 [1]	IC50 [2]	Truncated G2019 human LRRK2 inhibition mass spectrometry assay (pIC50) [1]
COc1nc(N2CCOCC2)cc(-n2ncc3cc(C)c(C4CCN(C)CC4(F)F)cc32)n1 (single isomer, unassigned) [Example E4, 4-(6-(6-(3,3-Difluoro-1-methylpiperidin-4-yl)-5-methyl-1H-indazol-1-yl)-2-methoxypyrimidin-4-yl)morpholine]	7.94 nM	25.1 nM	–
CNC(=O)[C@H]1CN(c2cc(-n3ncc4cc(C)c(C5CCN(C)CC5(F)F)cc43)nc(OC)n2)CCO1 (single isomer, unassigned) [Example E18]	12.6 nM	12.6 nM	–
COc1nc(N2CCOCC2)cc(-n2ncc3cc(C)c(C4CCN(C5COC5)CC4(F)F)cc32)n1 (single isomer, unassigned) [Example E22, 4-(6-(6-(3,3-Difluoro-1-(oxetan-3-yl)piperidin-4-yl)-5-methyl-1H-indazol-1-yl)-2-methoxypyrimidin-4-yl)morpholine]	7.94 nM	12.6 nM	–
COc1nc(N2CCOCC2)cc(-n2ncc3cc(C)c([C@H]4CCNC[C@H]4F)cc32)n1 (single isomer, unassigned) [Example E62, (cis)-4-(6-(6-(3-Fluoropiperidin-4-yl)-5-methyl-1H-indazol-1-yl)-2-methoxypyrimidin-4-yl)morpholine hydrochloride]	7.94 nM	50.1 nM	–
COc1nc(N2CC(C#N)C2)cc(-n2ncc3cc(C)c(C4CCNCC4(F)F)cc32)n1 (single isomer, unassigned) [Example E66, 1-(6-(6-(3,3-Difluoropiperidin-4-yl)-5-methyl-1H-indazol-1-yl)-2-methoxypyrimidin-4-yl)azetidine-3-carbonitrile]	31.6 nM	126 nM	–
COc1nc(N2CC(O)C2)cc(-n2ncc3cc(C)c(C4CCN(C5COC5)CC4)cc32)n1 [Example E79, 1-(2-Methoxy-6-(5-methyl-6-(1-(oxetan-3-yl)piperidin-4-yl)-1H-indazol-1-yl)pyrimidin-4-yl)azetidin-3-ol]	12.6 nM	10 nM	–
COc1nc(N2CCNCC2)cc(-n2ncc3cc(C)c(N4CCOCC4)cc32)n1 [Example E117, 4-(1-(2-Methoxy-6-(piperazin-1-yl)pyrimidin-4-yl)-5-methyl-1H-indazol-6-yl)morpholine]	25.1 nM	631 nM	–
COc1nc(N2CC(OCCO)C2)cc(-n2ncc3cc(C)c(C4CCOCC4)cc32)n1 [Example E237, 2-((1-(2-Methoxy-6-(5-methyl-6-(tetrahydro-2H-pyran-4-yl)-1H-indazol-1-yl)pyrimidin-4-yl)azetidin-3-yl)oxy)ethanol]	–	≤ 100 nM	–
Cc1nc(N2CC(O)C2)cc(-n2ncc3cc(Cl)c(N4CCC(O)CC4)cc32)n1 [Example E258, 1-(5-Chloro-1-(6-(3-hydroxyazetidin-1-yl)-2-methylpyrimidin-4-yl)-1H-indazol-6-yl)piperidin-4-ol]	–	≤ 100 nM	–

Now from value to compound:

IC50 [1]	IC50 [2]	Truncated G2019 human LRRK2 inhibition mass spectrometry assay (pIC50) [1]	Compound
–	31.6 nM	8	COc1nc(N2CC(O)C2)cc(-n2ncc3cc(C)c(C4CCN(C)CC4F)cc32)n1 (single isomer, unassigned) [Example E38, (cis)-1-(6-(6-(3-Fluoro-1-methylpiperidin-4-yl)-5-methyl-1H-indazol-1-yl)-2-methoxypyrimidin-4-yl)azetidin-3-ol]
10 nM	5.01 nM	–	COc1nc(N2CC(O)C2)cc(-n2ncc3cc(C)c(C4CCN(C)CC4F)cc32)n1 (single isomer, unassigned) [Example E39, (cis)-1-(6-(6-(3-Fluoro-1-methylpiperidin-4-yl)-5-methyl-1H-indazol-1-yl)-2-methoxypyrimidin-4-yl)azetidin-3-ol]
12.6 nM	50.1 nM	–	Cc1nc(N2CC(O)C2)cc(-n2ncc3cc(C)c(C4CCN(C)CC4F)cc32)n1 (single isomer, unassigned) [Example E40, (cis)-1-(6-(6-(3-Fluoro-1-methylpiperidin-4-yl)-5-methyl-1H-indazol-1-yl)-2-methylpyrimidin-4-yl)azetidin-3-ol]
–	126 nM	7.9	Cc1nc(N2CC(O)C2)cc(-n2ncc3cc(C)c(C4CCN(C)CC4F)cc32)n1 (single isomer, unassigned) [Example E41, (cis)-1-(6-(6-(3-Fluoro-1-methylpiperidin-4-yl)-5-methyl-1H-indazol-1-yl)-2-methylpyrimidin-4-yl)azetidin-3-ol]
≤ 10000 nM	–	–	Cc1cc2cnn(-c3cc(N4CC(O)C4)nc(OC(F)F)n3)c2cc1C1CCN(C)CC1F (single isomer, unassigned) [Example E48, (cis)-1-(2-(Difluoromethoxy)-6-(6-(3-fluoro-1-methylpiperidin-4-yl)-5-methyl-1H-indazol-1-yl)pyrimidin-4-yl)azetidin-3-ol]
–	≤ 100 nM	–	Cc1nc(N2CC(O)C2)cc(-n2ncc3cc(C)c(C4CCOCC4)cc32)n1 [Example E89, 1-(2-Methyl-6-(5-methyl-6-(tetrahydro-2H-pyran-4-yl)-1H-indazol-1-yl)pyrimidin-4-yl)azetidin-3-ol]
